ChEMBL document CHEMBL3991601, “The target landscape of clinical kinase drugs” (Science, 2017)
Structures can show the parent of a compound that is named as a salt. Activity calls are given as the source filed them.

Legend:
Glycine--tRNA ligase = target: T1, Glycine--tRNA ligase (Homo sapiens, UniProt P41250)
T1 sequence (P41250 whole entry): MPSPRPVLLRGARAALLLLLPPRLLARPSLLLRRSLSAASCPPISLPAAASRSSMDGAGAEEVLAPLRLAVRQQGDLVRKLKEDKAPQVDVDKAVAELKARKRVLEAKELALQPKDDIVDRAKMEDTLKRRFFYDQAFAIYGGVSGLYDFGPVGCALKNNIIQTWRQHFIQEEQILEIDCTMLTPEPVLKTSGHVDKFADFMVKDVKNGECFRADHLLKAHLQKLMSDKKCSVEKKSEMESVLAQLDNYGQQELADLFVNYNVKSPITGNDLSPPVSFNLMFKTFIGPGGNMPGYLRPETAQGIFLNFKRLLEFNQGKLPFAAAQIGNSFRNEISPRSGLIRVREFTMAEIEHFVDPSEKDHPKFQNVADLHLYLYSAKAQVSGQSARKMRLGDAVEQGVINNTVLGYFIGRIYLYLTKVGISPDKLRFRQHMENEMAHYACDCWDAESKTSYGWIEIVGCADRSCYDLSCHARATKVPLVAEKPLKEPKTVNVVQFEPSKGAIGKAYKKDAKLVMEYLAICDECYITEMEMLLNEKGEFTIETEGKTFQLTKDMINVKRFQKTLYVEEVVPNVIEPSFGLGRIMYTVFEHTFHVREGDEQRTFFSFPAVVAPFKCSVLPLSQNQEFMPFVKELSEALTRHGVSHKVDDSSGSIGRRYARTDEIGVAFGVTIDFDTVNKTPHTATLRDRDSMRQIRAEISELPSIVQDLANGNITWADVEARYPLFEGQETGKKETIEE

[1] = target: Tyrosine-protein kinase HCK (Homo sapiens, UniProt P08631)
Sequence of Tyrosine-protein kinase HCK (P08631 whole entry): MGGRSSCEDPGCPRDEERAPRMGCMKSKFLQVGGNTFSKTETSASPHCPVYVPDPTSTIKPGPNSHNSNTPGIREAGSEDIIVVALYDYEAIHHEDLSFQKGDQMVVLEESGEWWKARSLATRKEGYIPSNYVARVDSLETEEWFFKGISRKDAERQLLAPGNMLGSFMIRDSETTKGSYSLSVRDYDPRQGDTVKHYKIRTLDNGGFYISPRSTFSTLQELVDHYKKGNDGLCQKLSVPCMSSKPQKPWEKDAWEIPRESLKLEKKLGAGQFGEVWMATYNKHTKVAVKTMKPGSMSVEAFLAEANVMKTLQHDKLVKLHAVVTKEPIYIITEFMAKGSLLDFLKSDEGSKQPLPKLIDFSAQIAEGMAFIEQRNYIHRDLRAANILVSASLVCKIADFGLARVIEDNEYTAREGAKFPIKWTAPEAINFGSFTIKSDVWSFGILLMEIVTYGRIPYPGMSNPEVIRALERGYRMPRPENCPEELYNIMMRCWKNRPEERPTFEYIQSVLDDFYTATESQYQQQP

[2] = target: Mitogen-activated protein kinase 9 (Homo sapiens, UniProt P45984)
Sequence of Mitogen-activated protein kinase 9 (P45984 whole entry): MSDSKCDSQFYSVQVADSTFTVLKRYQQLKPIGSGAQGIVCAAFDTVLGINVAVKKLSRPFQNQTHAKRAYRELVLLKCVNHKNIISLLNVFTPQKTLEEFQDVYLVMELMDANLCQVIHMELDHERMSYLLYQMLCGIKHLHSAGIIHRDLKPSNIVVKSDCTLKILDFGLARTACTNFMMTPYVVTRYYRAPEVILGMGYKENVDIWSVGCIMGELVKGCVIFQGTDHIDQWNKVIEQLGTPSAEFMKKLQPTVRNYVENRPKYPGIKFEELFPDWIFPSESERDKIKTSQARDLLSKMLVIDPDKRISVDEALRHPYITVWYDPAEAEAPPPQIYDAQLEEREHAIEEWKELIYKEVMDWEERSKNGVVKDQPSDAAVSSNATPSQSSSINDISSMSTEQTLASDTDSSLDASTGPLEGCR

[3] = target: T2, ATP-dependent 6-phosphofructokinase, platelet type (Homo sapiens, UniProt Q01813)
T2 sequence (Q01813 whole entry): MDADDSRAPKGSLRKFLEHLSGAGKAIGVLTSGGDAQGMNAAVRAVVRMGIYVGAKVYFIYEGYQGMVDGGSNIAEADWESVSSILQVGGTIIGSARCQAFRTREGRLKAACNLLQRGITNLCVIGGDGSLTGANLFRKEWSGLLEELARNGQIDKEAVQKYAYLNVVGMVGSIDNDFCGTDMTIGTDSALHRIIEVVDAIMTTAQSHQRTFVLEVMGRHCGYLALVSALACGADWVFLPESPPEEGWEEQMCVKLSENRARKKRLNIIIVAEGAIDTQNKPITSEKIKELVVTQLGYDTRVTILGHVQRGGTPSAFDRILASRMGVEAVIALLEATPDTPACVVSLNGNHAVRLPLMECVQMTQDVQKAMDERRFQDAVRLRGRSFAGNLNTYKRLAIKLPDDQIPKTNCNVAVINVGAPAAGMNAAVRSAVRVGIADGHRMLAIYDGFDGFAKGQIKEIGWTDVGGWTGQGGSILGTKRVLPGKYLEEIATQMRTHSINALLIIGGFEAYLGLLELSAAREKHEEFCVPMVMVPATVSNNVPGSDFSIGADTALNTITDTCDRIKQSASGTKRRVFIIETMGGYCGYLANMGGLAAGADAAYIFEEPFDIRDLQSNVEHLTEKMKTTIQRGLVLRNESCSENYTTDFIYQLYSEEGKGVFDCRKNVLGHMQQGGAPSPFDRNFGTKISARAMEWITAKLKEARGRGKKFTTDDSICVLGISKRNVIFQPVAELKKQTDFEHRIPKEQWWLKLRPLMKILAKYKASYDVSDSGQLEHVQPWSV

[4] = target: T3, cGMP-dependent protein kinase 1 (Homo sapiens, UniProt Q13976)
T3 sequence (Q13976 whole entry): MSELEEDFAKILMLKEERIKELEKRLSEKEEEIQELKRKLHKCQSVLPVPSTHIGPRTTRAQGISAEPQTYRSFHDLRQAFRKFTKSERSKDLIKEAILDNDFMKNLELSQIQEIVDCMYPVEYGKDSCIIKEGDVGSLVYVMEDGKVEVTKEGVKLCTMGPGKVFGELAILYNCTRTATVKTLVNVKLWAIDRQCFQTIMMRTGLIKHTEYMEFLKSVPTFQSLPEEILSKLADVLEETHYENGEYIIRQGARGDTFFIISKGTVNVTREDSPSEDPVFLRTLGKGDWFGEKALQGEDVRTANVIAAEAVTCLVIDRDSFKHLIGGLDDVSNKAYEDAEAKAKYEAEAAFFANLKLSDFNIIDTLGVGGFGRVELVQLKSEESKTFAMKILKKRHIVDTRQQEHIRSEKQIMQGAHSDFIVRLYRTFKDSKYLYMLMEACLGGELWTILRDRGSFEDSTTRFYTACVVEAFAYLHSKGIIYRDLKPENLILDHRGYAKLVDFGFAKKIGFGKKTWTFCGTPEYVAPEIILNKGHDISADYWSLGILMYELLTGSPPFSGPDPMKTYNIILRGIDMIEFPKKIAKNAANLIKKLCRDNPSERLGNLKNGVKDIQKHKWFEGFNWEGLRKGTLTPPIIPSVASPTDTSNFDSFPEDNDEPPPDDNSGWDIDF

[5] = target: T4, Serine/threonine-protein kinase ULK3 (Homo sapiens, UniProt Q6PHR2)
T4 sequence (Q6PHR2 whole entry): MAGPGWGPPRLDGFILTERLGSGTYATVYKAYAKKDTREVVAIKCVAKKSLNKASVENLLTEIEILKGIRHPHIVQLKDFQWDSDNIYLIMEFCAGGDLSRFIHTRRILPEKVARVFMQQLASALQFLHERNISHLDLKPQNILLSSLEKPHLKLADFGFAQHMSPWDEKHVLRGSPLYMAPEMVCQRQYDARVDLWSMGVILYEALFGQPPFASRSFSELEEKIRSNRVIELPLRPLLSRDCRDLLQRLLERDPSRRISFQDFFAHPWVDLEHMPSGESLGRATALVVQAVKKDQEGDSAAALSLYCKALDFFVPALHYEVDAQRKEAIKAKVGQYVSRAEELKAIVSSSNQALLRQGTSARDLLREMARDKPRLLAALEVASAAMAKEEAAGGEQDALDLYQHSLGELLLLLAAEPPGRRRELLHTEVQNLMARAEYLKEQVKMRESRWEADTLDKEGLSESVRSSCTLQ
Also: in the data inactive means no Kd found up to 30 µM.

Kd (Glycine--tRNA ligase) | Kd [1] | Kd [2] | Kd [3] | Kd [4] | Kd [5] | SMILES
> 30 µM (inactive) | > 30 µM (inactive) | > 30 µM (inactive) | > 30 µM (inactive) | > 30 µM (inactive) | > 30 µM (inactive) | C[C@H]1CNCCCN1S(=O)(=O)c1cccc2cncc(F)c12
> 30 µM (inactive) | 0.623 µM (active) | > 30 µM (inactive) | > 30 µM (inactive) | > 30 µM (inactive) | > 30 µM (inactive) | Nc1ncnc2c1c(-c1cccc(OCc3ccccc3)c1)cn2[C@H]1C[C@@H](CN2CCC2)C1 [AEW-541]
> 30 µM (inactive) | > 30 µM (inactive) | > 30 µM (inactive) | > 30 µM (inactive) | > 30 µM (inactive) | > 30 µM (inactive) | Cc1nc(NC(=O)N2CCC[C@H]2C(N)=O)sc1-c1ccnc(C(C)(C)C(F)(F)F)c1 [ALPELISIB]
> 30 µM (inactive) | > 30 µM (inactive) | > 30 µM (inactive) | > 30 µM (inactive) | > 30 µM (inactive) | > 30 µM (inactive) | Cc1csc(-c2nnc(Nc3ccc(Oc4ncccc4-c4ccnc(N)n4)cc3)c3ccccc23)c1 [AMG-900]
> 30 µM (inactive) | > 30 µM (inactive) | > 30 µM (inactive) | > 30 µM (inactive) | > 30 µM (inactive) | > 30 µM (inactive) | C=CC(=O)Nc1cc2c(Nc3ccc(F)c(Cl)c3)ncnc2cc1C#CC(C)(C)N1CCN(C)CC1 [AV-412 FREE BASE]
> 30 µM (inactive) | > 30 µM (inactive) | > 30 µM (inactive) | > 30 µM (inactive) | > 30 µM (inactive) | > 30 µM (inactive) | Cc1cc(C(=O)NOCCO)c(Nc2ccc(I)cc2F)n(C)c1=O [AZD-8330]
> 30 µM (inactive) | > 30 µM (inactive) | > 30 µM (inactive) | > 30 µM (inactive) | > 30 µM (inactive) | > 30 µM (inactive) | Cn1cnc2c(F)c(Nc3ccc(Br)cc3F)c(C(=O)NOCCO)cc21 [BINIMETINIB]
> 30 µM (inactive) | > 30 µM (inactive) | > 30 µM (inactive) | > 30 µM (inactive) | > 30 µM (inactive) | > 30 µM (inactive) | CCn1c(C(=O)N(C2CC2)C2CC2)cc2c3c(ncn3C)c(Nc3cc(C)n(C)n3)nc21 [BMS-911543]
> 30 µM (inactive) | > 30 µM (inactive) | 0.148 µM (active) | > 30 µM (inactive) | > 30 µM (inactive) | > 30 µM (inactive) | COc1cc2ncnc(Oc3cccc(NC(=O)Nc4cc(C(C)(C)C(F)(F)F)on4)c3)c2cc1OC [CEP-32496]
> 30 µM (inactive) | > 30 µM (inactive) | > 30 µM (inactive) | > 30 µM (inactive) | > 30 µM (inactive) | > 30 µM (inactive) | Cc1cc(Nc2ncc(Cl)c(Nc3ccccc3S(=O)(=O)C(C)C)n2)c(OC(C)C)cc1C1CCNCC1 [CERITINIB]
> 30 µM (inactive) | > 30 µM (inactive) | > 30 µM (inactive) | > 30 µM (inactive) | > 30 µM (inactive) | > 30 µM (inactive) | COc1c(OCCCN2CCOCC2)ccc2c1N=C(NC(=O)c1cnc(N)nc1)N1CCN=C21 [COPANLISIB]
> 30 µM (inactive) | > 30 µM (inactive) | > 30 µM (inactive) | > 30 µM (inactive) | > 30 µM (inactive) | > 30 µM (inactive) | COCC(=O)NC/C=C/c1ccc2ncnc(Nc3ccc(Oc4ccc(C)nc4)c(C)c3)c2c1 [CP-724714]
> 30 µM (inactive) | > 30 µM (inactive) | 1.43 µM (active) | > 30 µM (inactive) | > 30 µM (inactive) | 0.655 µM (active) | CCS(=O)(=O)N1CCN(c2ccc(Nc3ncc(C(N)=O)c(NC4CC4)n3)cc2)CC1 [Cerdulatinib Hydrochloride]
> 30 µM (inactive) | > 30 µM (inactive) | > 30 µM (inactive) | > 30 µM (inactive) | > 30 µM (inactive) | > 30 µM (inactive) | Cc1nc2cc(-n3ncc(C(=O)c4cc5ccccc5[nH]4)c3N)ccc2[nH]1 [FGFR INHIBITOR DEBIO 1347]
> 30 µM (inactive) | > 30 µM (inactive) | > 30 µM (inactive) | > 30 µM (inactive) | > 30 µM (inactive) | > 30 µM (inactive) | Cc1cccc(-c2nn3c(c2-c2ccnc4ccc(C(N)=O)cc24)CCC3)n1 [GALUNISERTIB]
> 30 µM (inactive) | > 30 µM (inactive) | > 30 µM (inactive) | > 30 µM (inactive) | > 30 µM (inactive) | > 30 µM (inactive) | COc1ccc(S(=O)(=O)N(C(C)=O)c2ccccc2/C=C/c2cc[n+]([O-])cc2)cc1 [HMN-214]
> 30 µM (inactive) | > 30 µM (inactive) | > 30 µM (inactive) | > 30 µM (inactive) | > 30 µM (inactive) | > 30 µM (inactive) | CNC(=O)c1cccc2cc(Oc3ccnc4cc(OCC5(N)CC5)c(OC)cc34)ccc12 [LUCITANIB]

SMILES | Kd (Glycine--tRNA ligase) | Kd [1] | Kd [2] | Kd [3] | Kd [4] | Kd [5]
COc1cc([C@@H]2c3cc4c(cc3[C@H](O)[C@H]3COC(=O)[C@@H]23)OCO4)cc(OC)c1OC [AXL-1717] | > 30 µM (inactive) | > 30 µM (inactive) | > 30 µM (inactive) | > 30 µM (inactive) | > 30 µM (inactive) | > 30 µM (inactive)
NC(=O)Nc1cc(-c2cccc(F)c2)sc1C(=O)N[C@H]1CCCNC1 [AZD-7762] | > 30 µM (inactive) | 0.103 µM (active) | > 30 µM (inactive) | > 30 µM (inactive) | > 30 µM (inactive) | 1.79 µM (active)
O=C(Nc1nc2cccc(-c3ccc(CN4CCS(=O)(=O)CC4)cc3)n2n1)C1CC1 [FILGOTINIB] | > 30 µM (inactive) | > 30 µM (inactive) | > 30 µM (inactive) | > 30 µM (inactive) | > 30 µM (inactive) | > 30 µM (inactive)
